From patent US20070275005A1, “Use of Lipopeptides for Activating T Lymphocytes Through the Skin” (TX-CELL, priority 2003, published 2007) come the findings set out here.

Where no end group is shown, it is not given here.

Test [1] relates to CD8+ mediated T lymphocyte response. Kind of test: Priming of a CD8+ T lymphocyte response by epicutaneous lipopeptide application (IFN-γ by lymph node cells). The test is classed as in vivo, C57BL/6 mice. The note with it: 1 mg on shaved abdomen once a day during one week, read one week later, vs untreated or vehicle; FIG. 3. As for the experimental part: (§1) TRP2180-188 lipopeptide and OVA323-339-lipopeptide were diluted at 10 mg/ml in olive oil. Mice were treated during by applying 1 mg lipopeptide or olive oil directly on shaved abdominal skin.
Sandwich ELISA was used to measure IFN-γ. In brief, ELISA plates (Polylabo, France) were coated with the appropriate coating mAbs (monoclonal antibodies) in carbonate buffer and incubated at 4° C. overnight. Plates were blocked for 30 mn at room temperature with 150 μl of 20% FCS/PBS to each well. 50 μl supernatants from in vitro stimulated cells were then added to the plates and incubated overnight at 4° C. After a washing step, 50 μl/well of the biotinylated second-step Ab was added. Plates were incubated for 1 h at room temperature and washed. The enzyme conjugate (streptavidin-peroxidase) was then added to each well. […] Plates were read on an ELISA reader at a wavelength of 405 nm after color development (Labsystems iEMS reader, Helsinki, Finland). […]
The inventors first wanted to know whether the epicutaneous application of a MHC class I restricted peptide formulated as a lipopeptide could prime a T CD8^+ lymphocyte mediated immune response in mice. […] One week after the last lipopeptide application, mice were sacrificed and the production of IFN-γ by skin draining lymph nodes cells was measured in vitro upon restimulation with the TRP2180-188 peptide.

Test [2] has the same test system. As to the kind of experiment: Enhancement of a CD8+ T lymphocyte response after prior peptide immunisation (IFN-γ by lymph node cells). The test is classed as in vivo. The note with it: mice previously immunised s.c. with 25 μg TRP2180-188 peptide in CFA; 1 mg lipopeptide on skin for 3 days; day 30; FIG. 4. As for the experimental part: as §1
(§2) Sandwich ELISA was used to measure IFN-γ. In brief, ELISA plates (Polylabo, France) were coated with the appropriate coating mAbs (monoclonal antibodies) in carbonate buffer and incubated at 4° C. overnight. Plates were blocked for 30 mn at room temperature with 150 μl of 20% FCS/PBS to each well. 50 μl supernatants from in vitro stimulated cells were then added to the plates and incubated overnight at 4° C. After a washing step, 50 μl/well of the biotinylated second-step Ab was added. Plates were incubated for 1 h at room temperature and washed. The enzyme conjugate (streptavidin-peroxidase) was then added to each well. Plates were incubated at room temperature for 1 h, washed and 100 μl/well of substrate was added, (1 mg/ml ABTS). Plates were read on an ELISA reader at a wavelength of 405 nm after color development (Labsystems iEMS reader, Helsinki, Finland). […]
The inventors next wanted to evaluate the capacity of the TRP2180-188 lipopeptide treatment to enhance a prior immunisation of mice with the TRP2180-188 peptide. […] At day 30, mice were sacrificed and the production of IFN-γ by skin draining lymph nodes cells was measured in vitro upon restimulation with the TRP2180-188 peptide.

Test [3] concerns OVA-specific DO11-10 T cells. As to the kind of experiment: In vivo activation of T lymphocytes by cutaneous lipopeptide application on the ear (FACS of draining lymph node). On the set-up: species or system BALB/c mice. The note with it: daily 20 μl of 50 μM on the ear, vs olive oil; FIG. 1. How it is done:
Lipopeptide activates T lymphocytes in vivo. BALB/c mice were injected intravenously with 20×10^6 DO11-10 TCR-anti OVA transgenic splenocytes. Mice where then treated during 4 days by applying daily 20 μl of 50 μM OVA323-339-lipopeptide or the vehicle directly on one ear. At day five, mice were sacrificed, the draining lymph node and the contra-lateral node cells were stained with the anti-idiotype KJ1-26 recognizing specifically DO11-10 T lymphocytes, anti-CD4 and anti-CD25 antibody. FACS analysis is shown for lymph node cells gated on CD4^+ T lymphocytes.
To analyze the potential curative effect of Tr1 cells in a different inflammatory model, the inventors set up skin inflammation experiments using the hapten oxazolone in three daily applications (FIG. 1). Because Tr1 cells need to be activated at the site of inflammation, they first tested the ability of cutaneous application of lipo-Ova peptide to stimulate T cells. BALB/c mice were injected with naive OVA-specific DO11-10 T cells and mice were treated during […] by applying daily 20 μl of 50 μM OVA323-339-lipopeptide or olive oil directly on the ear. […] In that model, three days after the induction of ear inflammation with oxazolone, the mice were treated with OVA-specific Th1, Th2 or Tr1 T-cell populations or a Tr1 cell clone (FIG. 2) and the lipo-OVA peptide was applied for 6 days.

The test system of test [4] is CD4+ mediated humoral response. As to the kind of experiment: Enhancement of a CD4+ mediated humoral response (serum Ovalbumin-specific IgE). The following applies: mice immunised i.p. with 25 μg Ovalbumin in Alumn; 1 mg lipopeptide on skin for 3 days; day 20; FIG. 5. The class given is in vivo, Balb/C mice. As for the experimental part:
as §1, §2
The inventors also wanted to know wether a lipopeptide epicutaneous application could enhance an humoral response elicited by CD4^+ T lymphocytes in immunised mice. […] At day 20, mice were sacrificed and the concentration of Ovalbumin-specific IgE immunoglobulin was measured in the serum of mice.

In the case of “TRP2180-188 lipopeptide (SVYDFFVWL; also: lipid moiety, structure and place not given here; UniProt P29812 180-188, looked up, fragment) [lipopeptide derived from the tyrosinase related protein-2, restricted to the H2-K^b molecule; purchased from Bachem]”, the “production of IFN-γ by skin draining lymph nodes cells upon restimulation with the TRP2180-188 peptide” value in test [1] is reported as “high amounts of IFN-γ were produced”; in test [2], “enhancement of the IFNγ production”.
On to “OVA323-339-lipopeptide (KISQAVHAAHAEINEAG; also: lipid moiety, structure and place not given here; UniProt P01012 323-339, looked up, fragment) [peptide 323-339 from Ovalbumin, MHC Class II I-A^d restricted, formulated as lipopeptide; purchased from Bachem]”, for which the “activated (CD25+) OVA-specific (KJ1-26+) T cells in draining lymph nodes” value in test [3] is recorded as “accumulation of activated (CD25^+) OVA-specific (KJ1-26^+) only in the ear draining-lymph node treated with the lipopeptide”. Besides, the “serum concentration of Ovalbumin-specific IgE” value in test [4] is “increase in the serum concentration of Ovalbumin specific IgE”.
